Several values for one entry are separate records, joined by “and”; a condition that tells them apart may be missing. Equal values may be shown once.
Columns and labels:
[1] = test system: Pioneer inbred ED85E and GR013D seedlings / leaf segments; assay: Sugar (maltose) seedling pre-treatment, leaf transformation (Table 27); assay type: in vivo, maize
[2] = test system: Pioneer inbred ED85E seedlings / leaf segments; assay: Cytokinin seedling pre-treatment, leaf transformation (Table 25); assay type: in vivo, maize; settings: for # T0 plants / # culture response (2 wk) / # culture response (4 wk) / T-DNA score (0-5) / TXN %: 21 seedlings, PHP97334
[3] = test system: pearl millet (Pennisetum glaucum) seedlings; assay: Ancymidol pre-treatment during seed germination and seedling growth, pearl millet; assay type: in vivo
[4] = test system: maize inbred seedlings with pre-integrated target site 45 / leaf segments; assay: Seedling pre-treatment with ancymidol, Agrobacterium-mediated site-specific integration (Table 22); assay type: in vivo; settings: 90AE medium (900 + 2 mg/l ancymidol); 30 seedlings; PHP90842:PHP93925 9:1; no untreated comparison
[5] = test system: Japonica rice (Oryza sativa var Kitaake) seedlings; assay: Ancymidol pre-treatment during seed germination and seedling growth, rice; assay type: in vivo
[6] = test system: teff (Eragrostis tef) seedlings; assay: Ancymidol pre-treatment during seed germination and seedling growth, teff; assay type: in vivo
[7] = test system: Pioneer inbred ED85E seedlings / leaf segments; assay: Gibberellic acid inhibitor seedling pre-treatment, leaf transformation (Table 24); assay type: in vivo, maize
[8] = test system: Pioneer inbred GR0112 seedlings / leaf segments; assay: Fipexide seedling pre-treatment, leaf transformation (Table 26); assay type: in vivo, maize; settings: for # culture response (2 wk) / # culture response (4 wk) / T-DNA score (0-5): 42 seedlings, PHP96277; for increase of total somatic embryo (SE) number relative to the control treatment: within the first four weeks of culture, per 42 starting seedlings
[9] = test system: Pioneer inbred GR0112 seedlings / leaf segments; assay: Norflurazon (abscisic acid biosynthesis inhibitor) seedling pre-treatment, leaf transformation (Table 28); assay type: in vivo, maize; settings: for # culture response (2 wk): 2 weeks after infection
[10] = 20 mg/l maltose in place of sucrose, 90AE medium, second replicate (inbred GR013D), 30 seedlings, PHP104215
[11] = 1 mg/l in 90AE medium (+ 2 mg/l ancymidol)
[12] = 3 mg/l in 90AE medium (+ 2 mg/l ancymidol)
[13] = 900 medium plus 2 mg/l ancymidol
[14] = 4.75 mg/l in 90AE medium (+ 2 mg/l ancymidol)
[15] = 9.5 mg/l in 90AE medium (+ 2 mg/l ancymidol)
[16] = 19 mg/l in 90AE medium (+ 2 mg/l ancymidol)
[17] = 5 mg/l in 90AE medium (+ 2 mg/l ancymidol)
[18] = 0.1 mg/l in 90AE medium (+ 2 mg/l ancymidol)
[19] = 0.5 mg/l in 90AE medium (+ 2 mg/l ancymidol)
[20] = 250 mg/l in 90AO medium (900 + 1 mg/l ancymidol), 30 seedlings, PHP97334
[21] = 500 mg/l in 90AO medium (900 + 1 mg/l ancymidol), 30 seedlings, PHP97334
[22] = 2 mg/l in 900 germination medium, 24 seedlings, PHP101093
[23] = 4 mg/l in 900 germination medium, 24 seedlings, PHP101093
[24] = 6 mg/l in 900 germination medium, 24 seedlings, PHP101093

## OC[C@H]1O[C@H](O[C@H]2[C@H](O)[C@@H](O)C(O)O[C@@H]2CO)[C@H](O)[C@@H](O)[C@@H]1O (mixture of isomers) [Maltose, maltose]
[1]; 20 mg/l maltose as the carbon source, inbred GR013D
  improvement of T0 Txn % relative to seedlings grown on 20 mg/l sucrose: 1.3 fold
[1]; [10]
  # T0 plants: 25
  # culture response (2 wk): 650
  # culture response (4 wk): 562
  T-DNA score (0-5): 4
  TXN %: 83%

## trans-zeatin
[2]; 1 mg/l
  increase of T0 Txn % relative to the control seedling germination medium with no cytokinin: 1.2 fold
[2]; [11]
  # T0 plants: 102
  # culture response (2 wk): 196
  # culture response (4 wk): 177
  T-DNA score (0-5): 4
  TXN %: 486%
[2]; 3 mg/l
  increase of T0 Txn % relative to the control seedling germination medium with no cytokinin: 1.5 fold
[2]; [12]
  # T0 plants: 130
  # culture response (2 wk): 192
  # culture response (4 wk): 222
  T-DNA score (0-5): 4
  TXN %: 619%

## COc1ccc(C(O)(c2cncnc2)C2CC2)cc1 (stereo not drawn) [Ancymidol, ancymidol]
[3]; [13]
  seedling height after 14 days: 1-2 cm
[3]; 900 plus 1 mg/l ancymidol
  number of transgenic T0 plantlets compared to the other two treatments (0 and 2 mg/l): highest
[4]
  Number of: Escapes: 3
  Number of: Events regenerated: 7
  Number of: Leaf segments/pieces responded: 127
  Number of: Putative events: 44
  Number of: RMCE events: 1
  Number of: SSI events: 3
[5]; [13]
  seedling height after 14 days: 1-2 cm
[5]; 900 plus 1 mg/l ancymidol
  number of transgenic T0 plantlets compared to the other two treatments (0 and 2 mg/l): highest
[6]; [13]
  seedling height after 14 days: 1-2 cm
[6]; 900 plus 1 mg/l ancymidol
  number of transgenic T0 plantlets compared to the other two treatments (0 and 2 mg/l): highest

## CN(C)NC(=O)CCC(=O)O [Daminozide, daminozide]
[7]; in vivo
  # T0 plants: 71 and 41 and 53
  # culture response (2 wk): 87 and 103 and 70
  # culture response (4 wk): 99 and 103 and 95
  T0 transformation frequencies relative to the control treatment: increase
  T-DNA score (0-5): 4
  TXN %: 355% and 205% and 265%
  trend in the T0 transformation data: no clear trend

## O=C(COc1ccc(Cl)cc1)N1CCN(Cc2ccc3c(c2)OCO3)CC1 [Fipexide, fipexide]
[8]; [14]
  # culture response (2 wk): 768
  # culture response (4 wk): 829
  T-DNA score (0-5): 4
[8]; 4.75 mg/l
  increase of total somatic embryo (SE) number relative to the control treatment: 1.4 fold
[8]; [15]
  # culture response (2 wk): 681
  # culture response (4 wk): 780
  T-DNA score (0-5): 3.5
[8]; 9.5 mg/l
  increase of total somatic embryo (SE) number relative to the control treatment: 1.3 fold
[8]; [16]
  # culture response (2 wk): 636
  # culture response (4 wk): 733
  T-DNA score (0-5): 3.5
[8]; 19 mg/l
  increase of total somatic embryo (SE) number relative to the control treatment: 1.2 fold

## c1ccc(CNc2ncnc3nc[nH]c23)cc1 [BAP, 6-benylamino purine]
[2]; 1 mg/l
  increase of T0 Txn % relative to the control seedling germination medium with no cytokinin: 1.4 fold
[2]; [11]
  # T0 plants: 97
  # culture response (2 wk): 135
  # culture response (4 wk): 151
  T-DNA score (0-5): 4
  TXN %: 462%
[2]; 5 mg/l
  increase of T0 Txn % relative to the control seedling germination medium with no cytokinin: 1.8 fold
[2]; [17]
  # T0 plants: 128
  # culture response (2 wk): 144
  # culture response (4 wk): 172
  T-DNA score (0-5): 4
  TXN %: 610%

## O=C(Nc1ccccc1)Nc1cnns1 [TDZ, thidiazuron]
[2]; [18]
  # T0 plants: 99
  # culture response (2 wk): 169
  # culture response (4 wk): 121
  T-DNA score (0-5): 4
  TXN %: 471%
[2]; [19]
  # T0 plants: 97
  # culture response (2 wk): 182
  # culture response (4 wk): 122
  T-DNA score (0-5): 4
  TXN %: 462%
[2]; 0.1 and 0.5 mg/l
  change over the control treatment: no increase
[2]; higher concentration ranges, such as 1, 2, 5, or 10 mg/l, stated in present tense, no data
  somatic embryo response and transformation frequency (Txn %): increase

## C[N+](C)(C)CCCl [Chlormequat chloride, chlormequat chloride]
[7]; [20]
  # T0 plants: 145
  # culture response (2 wk): 265
  # culture response (4 wk): 318
  T-DNA score (0-5): 4.5
  TXN %: 483%
[7]; 250 mg/l pretreatment of ED85E seedlings
  improvement of T0 transformation frequency (Txn %) relative to the control: 1.4 fold
[7]; [21]
  # T0 plants: 108
  # culture response (2 wk): 302
  # culture response (4 wk): 339
  T-DNA score (0-5): 4.5
  TXN %: 360%

## CC(C)(C)[C@@H](O)[C@@H](Cc1ccc(Cl)cc1)n1cncn1 (racemic) [PBZ, paclobutrazol]
[7]; [22]
  # T0 plants: 60
  # culture response (2 wk): 271
  # culture response (4 wk): 224
  T-DNA score (0-5): 3.5
  TXN %: 250%
[7]; [23]
  # T0 plants: 40
  # culture response (2 wk): 212
  # culture response (4 wk): 156
  T-DNA score (0-5): 3.5
  TXN %: 167%
[7]; [24]
  # T0 plants: 29
  # culture response (2 wk): 151
  # culture response (4 wk): 99
  T-DNA score (0-5): 3.5
  TXN %: 121%
[7]; concentrations tested in Table 24 (paclobutrazol 2-6 mg/l, daminozide 50-150 mg/l)
  trend in the T0 transformation data: no clear trend
[7]; higher concentration ranges 10, 20, 50 mg/l, stated in present tense, no data
  T0 transformation frequencies relative to the control treatment: increase

## CNc1cnn(-c2cccc(C(F)(F)F)c2)c(=O)c1Cl [norflurazon]
[9]; 0.1 mg/l norflurazon, inbred GR0112, within the first two weeks of culture after Agrobacterium infection
  improvement of T0 Txn % relative to the control treatment: 1.1 fold
[9]; norflurazon 0.1 mg/l in 90AE germination medium, inbred GR0112
  T-DNA score (0-5): 4
[9]; norflurazon 0.1 mg/l, 22 seedlings
  # culture response (2 wk): 350
[9]; norflurazon 1 mg/l in 90AE germination medium, inbred GR0112
  T-DNA score (0-5): 1.5
[9]; norflurazon 1 mg/l, 7 seedlings
  # culture response (2 wk): 19
[9]; norflurazon 3 mg/l in 90AE germination medium, inbred GR0112
  T-DNA score (0-5): 2
[9]; norflurazon 3 mg/l, 7 seedlings
  # culture response (2 wk): 45
